The subject of data set [1] is human T lymphocyte leukemia Jurkat cells. Put plainly: Cell viability of Jurkat cells (CCK-8). The format is cell-based. The note with it: different concentrations, 8 hours. As to the method: (§1) The human lymphocyte leukemia Jurkat cells in exponential phase were seeded in the 96-well plate at the density of 2×10^4/well. Then synthetic peptides were sufficiently mixed with AD5-10 according to corresponding concentrations and incubated at 37° C. for 1 h. The mixture was then added to the culture wells containing the tumor cells. CCK-8 agent (Dojindo Laboratories, Kumamoto, Japan) was used and the OD values (wavelength […]) were detected 2 h after the reaction. The OD value of the wells having no cells was set to be “0”, the Relative cell viability=OD value of treated well/OD value of untreated sample×100%.

Data set [2] concerns human colon cancer cells HCT116. Put plainly: Tumoricidal activity to human colon cancer cells HCT116 (microscopy, CCK-8). The data set is classed as cell-based. As to the method:
HCT116 cells were treated with TRAIL, AD5-10 and monoclonal antibodies Adie-1 and Adie-2 of different concentrations. […] The OD value of the wells having no cells was set to be “0”, the Relative cell viability=OD value of treated well/OD value of untreated sample×100%.

The subject of data set [3] is AD5-10. As to the kind of experiment: Synthetic peptides binding AD5-10 and blocking its tumoricidal activity on Jurkat cells. The data set is classed as cell-based, mouse. As to the method: as §1
The subject of data set [4] is AD5-10. Put plainly: Oriented Peptide Array Library: binding of peptides to AD5-10. To be noted: for binding capabilities to AD5-10 (antigenicity): AD5-10 2 μg/ml. Further details: species or system mouse. The source says: A series of the derivative peptides comprising the core peptide (as shown in Tab. 1 and 2) were synthesized according to the amino acid sequence of human DR5 (NCBI Acc #: NP_671716.1) provided in NCBI protein database. Subsequently, the peptide arrays as said above were spotted on nitrocellulose membranes using an ASP222 SPOT robot workstation (one dot corresponds to one polypeptide of which the concentration is about 5 nmol), the homogenicity of the protein amount was detected with ninhydrin staining before the corresponding detection. The membrane was blocked with 3% BSA in TBS-T solution for 1 h at room temperature and followed by incubation with corresponding specific primary antibodies (the final concentration is 2 μg/ml) at 4° C. over night. The array membrane was then incubated with HRP-conjugated goat anti-mouse polyclonal antibodies for 2 h at room temperature and then chromogenic substrate ECL was added to develop the membrane.

The mark [5] stands for this setting: peptide at different concentrations.

Regarding “TRAIL: tumor necrosis factor-related apoptosis inducing ligand, natural ligand for death receptors DR4 and DR5”, the “cell viability of Jurkat cells” value in data set [1] is listed as “can inhibit the cell viability of human T lymphocyte leukemia Jurkat cells in a dose-dependent manner”. Moreover, in data set [2] (500 ng/ml, 8 h), the “morphological changes and cell death characteristics of HCT116 cells observed under microscope” value is “Apparent morphological changes and cell death characteristics”. Further, the “cell viability of HCT116 cells” value in data set [2] (different concentrations, CCK-8) is given as “notably reduced with the increase of the treatment concentrations”.
As for “AQITQQDLAPQQRA (wild type epitope 1) [wild-type epitope 1]”, the “binding to AD5-10 and blocking of its cytotoxicity” value (shortened to “binding to AD5-10 and blocking”) was “can bind to AD5-10 and block its cytotoxicity” in the data set with AD5-10 [3] (peptide 10 μM); “can bind to AD5-10 and block its cytotoxicity” in the data set on AD5-10 [3] (setting [5]).
For “ITQQDLAPQQRA (Extended sequence of SEQ ID NO. 1 which extends from the N-terminal of the said amino acid sequence to the C-terminal of the amino acid sequence in accordance with the amino acid sequence of DR5)”, in the data set with AD5-10 [4], the “binding capabilities to AD5-10 (antigenicity)” value was “the strongest”.
Take “mutant epitope 1: synthetic peptide of wild-type epitope 1 with the key amino acid residues mutated (AQITQQDAAPQQRA; mutant epitope 1)”: in the data set on AD5-10 [3] (peptide 10 μM), the “binding to AD5-10 and blocking” value is given as “cannot bind to AD5-10”.
For “mutant epitope 2: synthetic peptide of wild-type epitope 2 with the key amino acid residues mutated (AITQQDAAPQQRA; mutant epitope 2)”, the “binding to AD5-10 and blocking” value in the data set with AD5-10 [3] (peptide 10 μM) is on record as “cannot bind to AD5-10”.
Take “QDLAP (Antigenic determinants recognized by the mouse anti-human death receptor DR5 monoclonal antibody AD5-10)”: in the data set with AD5-10 [4], the “epitope recognized by AD5-10” value was “shortest amino acid sequence of the epitope recognized by AD5-10”.
Turning to “AITQQDLAPQQRA (wild type epitope 2) [wild-type epitope 2]”, the “binding to AD5-10 and blocking” value is “can bind to AD5-10 and block its cytotoxicity” in the data set on AD5-10 [3] (peptide 10 μM); “can bind to AD5-10 and block its cytotoxicity” in the data set on AD5-10 [3] (setting [5]).
As for “ALITQQDLAPQQ (Extended sequence of SEQ ID NO. 1 which extends from the N-terminal of the said amino acid sequence to the C-terminal of the amino acid sequence in accordance with the amino acid sequence of DR5)”, the “binding capabilities to AD5-10 (antigenicity)” value in the data set on AD5-10 [4] is on record as “the strongest”.

Values taken from patent US8790663B2, “Antigenic determinants of human death receptor DR5” (Institute of Basic Medical Sciences, Chinese Academy of …, priority 2009, dated 2014).
